Laboratory results as given in patent publication US20080102497A1, “ENZYMATIC HYDROLYSIS OF STARCH” (priority 2006, published 2008).
Read-outs that look alike come from different tables or passages of the source.

Tests used:
[1] = target: T1, α-amylase from porcine pancreas (Sus scrofa, UniProt P00690); test: hydrolysis of cooked dent corn starch; type: biochemical; settings: cooked dent corn starch 0.5%, pH 5.2, 37° C., 10 min
T1 construct: the α-amylase from porcine pancreas; from tissue; host or cells: porcine pancreas
T1 sequence (P00690 16-511): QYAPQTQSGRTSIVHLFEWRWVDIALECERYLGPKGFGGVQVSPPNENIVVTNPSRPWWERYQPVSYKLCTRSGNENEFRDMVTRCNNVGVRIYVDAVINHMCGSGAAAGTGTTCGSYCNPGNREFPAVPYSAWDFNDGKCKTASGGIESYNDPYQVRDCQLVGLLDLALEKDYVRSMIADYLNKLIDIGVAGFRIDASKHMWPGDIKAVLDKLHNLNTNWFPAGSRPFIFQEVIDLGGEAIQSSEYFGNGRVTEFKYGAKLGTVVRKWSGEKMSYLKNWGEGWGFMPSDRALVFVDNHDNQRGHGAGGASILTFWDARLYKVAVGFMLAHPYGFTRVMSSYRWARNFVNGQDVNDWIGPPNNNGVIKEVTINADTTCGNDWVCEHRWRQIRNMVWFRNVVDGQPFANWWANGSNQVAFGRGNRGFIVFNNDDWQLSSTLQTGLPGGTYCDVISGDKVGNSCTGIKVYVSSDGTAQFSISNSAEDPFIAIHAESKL
Method: (§1) The separate reaction mixtures were incubated at 37° C. for 10 minutes. The control reaction mixtures contained enzyme, buffer, and starch but no manganese ion. The starch hydrolysis reaction was stopped by combining the reaction mixture with a solution containing DNSA and heating for 30 min at 85° C. The absorbance of the control and test samples was measured at 562 nm to monitor the amount of reducing sugar in each sample.

[2] = target: α-amylase from Bacillus licheniformis (Bacillus licheniformis, UniProt P06278); test: hydrolysis of raw corn starch, reducing sugar by DNSA; type: biochemical; settings: for Relative Activity: raw corn starch, pH 5.3, 37° C., 20 min
[3] = target: T2, glucoamylase from Aspergillus Niger (Aspergillus niger, UniProt P69328); settings: for Relative Activity: raw corn starch, pH 5.3, 37° C., 20 min
Method: Thereafter, 40 μl of each pre-incubation solution was added to 15 mg raw corn starch, and the reaction mixture incubated at 37° C. for 20 minutes. The control reaction mixture contained substrate, enzyme, and buffer but no manganese ion. The starch hydrolysis reaction was stopped by combining the reaction mixture with a solution containing DNSA and heating for 30 min at 85° C. The absorbance of the control and test samples was measured at 562 nm to monitor the amount of reducing sugar in each sample.

[4] = target: T3, β-amylase from sweet potato (Ipomoea batatas, UniProt P10537); test: hydrolysis of raw corn starch or soluble starch; type: biochemical; settings: for % Relative Activity: pH 5.3, 37° C., 20 min
T3 construct: purchased Sigma A-7005
Method: Each of the buffered enzyme solutions was separately added to 15 mg raw corn starch or 0.6 mg soluble starch, and the reaction mixtures incubated at 37° C. for 20 minutes. The control reaction mixture contained substrate, enzyme, and buffer but no manganese ion. The starch hydrolysis reaction was stopped by combining the reaction mixture with a solution containing DNSA and heating for 30 min at 85° C. The absorbance of the control and test samples was measured at 562 nm to monitor the amount of reducing sugar in each sample.

[5] = target: T2, glucoamylase from Aspergillus Niger; settings: pH 5.2, 37° C., 10 min
Method: The separate reaction mixtures were incubated at 37° C. for 10 minutes. The control reaction mixture contained enzyme, buffer, and starch but no manganese ion. The starch hydrolysis reaction was stopped by combining the reaction mixture with a solution containing DNSA and heating for 30 min at 85° C. The absorbance of the control and test samples was measured at 562 nm to monitor the amount of reducing sugar in each sample.

[6] = system: glucoamylase from Rhizopus sp.; test: hydrolysis of cooked dent corn starch; type: biochemical; settings: cooked dent corn starch 0.5%, pH 5.2, 37° C., 10 min
Method: as §1

T3 sequence (P10537 whole entry): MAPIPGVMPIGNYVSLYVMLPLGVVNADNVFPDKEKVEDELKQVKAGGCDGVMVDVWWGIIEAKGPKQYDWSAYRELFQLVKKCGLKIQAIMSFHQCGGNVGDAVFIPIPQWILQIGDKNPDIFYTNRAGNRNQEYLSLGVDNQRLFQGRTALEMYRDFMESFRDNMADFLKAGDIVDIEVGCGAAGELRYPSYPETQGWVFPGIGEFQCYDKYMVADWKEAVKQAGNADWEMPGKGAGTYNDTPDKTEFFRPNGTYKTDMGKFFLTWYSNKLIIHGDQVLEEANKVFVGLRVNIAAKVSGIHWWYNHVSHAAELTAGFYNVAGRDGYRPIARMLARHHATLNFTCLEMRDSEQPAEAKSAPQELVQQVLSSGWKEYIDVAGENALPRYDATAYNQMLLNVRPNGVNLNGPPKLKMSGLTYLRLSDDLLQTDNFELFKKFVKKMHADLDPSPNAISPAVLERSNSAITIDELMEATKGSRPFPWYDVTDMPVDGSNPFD
α-amylase from Bacillus licheniformis, sequence (P06278 30-512): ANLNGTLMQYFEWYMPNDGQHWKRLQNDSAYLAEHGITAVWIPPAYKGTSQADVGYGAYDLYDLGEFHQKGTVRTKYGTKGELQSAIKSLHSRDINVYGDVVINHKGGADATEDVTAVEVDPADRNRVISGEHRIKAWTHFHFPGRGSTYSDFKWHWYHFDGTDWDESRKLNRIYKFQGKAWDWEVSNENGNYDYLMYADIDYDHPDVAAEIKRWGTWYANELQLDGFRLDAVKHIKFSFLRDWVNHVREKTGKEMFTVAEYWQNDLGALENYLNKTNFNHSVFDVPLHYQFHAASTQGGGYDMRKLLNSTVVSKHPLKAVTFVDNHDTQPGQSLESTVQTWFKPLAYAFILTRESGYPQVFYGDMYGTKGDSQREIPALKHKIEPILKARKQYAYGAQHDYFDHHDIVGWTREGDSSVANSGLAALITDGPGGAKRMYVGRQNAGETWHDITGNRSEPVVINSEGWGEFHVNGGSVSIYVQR
T2 sequence (P69328 25-640): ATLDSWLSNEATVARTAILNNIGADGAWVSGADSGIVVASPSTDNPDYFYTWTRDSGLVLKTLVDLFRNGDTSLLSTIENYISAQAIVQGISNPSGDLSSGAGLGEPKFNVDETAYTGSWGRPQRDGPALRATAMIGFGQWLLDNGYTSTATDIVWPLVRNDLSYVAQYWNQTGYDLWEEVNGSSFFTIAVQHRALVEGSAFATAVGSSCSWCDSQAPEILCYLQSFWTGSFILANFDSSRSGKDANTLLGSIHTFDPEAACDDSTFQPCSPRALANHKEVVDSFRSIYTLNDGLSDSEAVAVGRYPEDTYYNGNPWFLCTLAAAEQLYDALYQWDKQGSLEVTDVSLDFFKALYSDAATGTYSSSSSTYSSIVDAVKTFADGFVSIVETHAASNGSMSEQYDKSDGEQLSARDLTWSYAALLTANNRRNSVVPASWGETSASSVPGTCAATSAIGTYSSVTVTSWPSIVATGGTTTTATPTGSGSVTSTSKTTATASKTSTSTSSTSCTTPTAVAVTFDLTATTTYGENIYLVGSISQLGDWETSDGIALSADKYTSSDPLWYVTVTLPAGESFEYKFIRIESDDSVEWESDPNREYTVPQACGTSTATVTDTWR

`[Mn+2]` [Mn^++, manganese ions] was tested, and the “Relative Activity” value ([1]; 0.01 mM Mn^++) was 114.5%, the “Relative Activity” value ([1]; 0.1 mM Mn^++) was 132.4% and the “Relative Activity” value ([1]; 1 mM Mn^++) was 144.2%. The “Relative Activity” value ([1]; 10 mM Mn^++) was 177.7%, the “Relative Activity” value ([2]; 0.01 mM Mn^++) was 93.4% and the “Relative Activity” value ([2]; 0.1 mM Mn^++) was 104.6%. For the same molecule, the “Relative Activity” value ([2]; 1 mM Mn^++) was 113.8%, the “effect on hydrolysis of raw corn starch (in words)” value ([2]; summary of Table 4) was “enhances the hydrolysis of raw corn starch” and the “Relative Activity” value ([3]; 0.01 mM Mn^++) was 94.4%. For the same molecule, the “Relative Activity” value ([3]; 0.1 mM Mn^++) was 111.2%, the “Relative Activity” value ([3]; 1 mM Mn^++) was 127.1% and the “Relative Activity” value ([3]; 10 mM Mn^++) was 160.6%. The “effect on hydrolysis of raw corn starch (in words)” value ([3]; summary of Table 4) was “enhances the hydrolysis of raw corn starch”, the “% Relative Activity” value ([4]; 0.01 mM Mn^++, raw corn starch) was 113.9% and the “% Relative Activity” value ([4]; 0.01 mM Mn^++, soluble starch) was 108.6%. The “% Relative Activity” value ([4]; 0.1 mM Mn^++, raw corn starch) was 106.6%, the “% Relative Activity” value ([4]; 0.1 mM Mn^++, soluble starch) was 127.1% and the “% Relative Activity” value ([4]; 1 mM Mn^++, raw corn starch) was 136.5%. For the same molecule, the “% Relative Activity” value ([4]; 1 mM Mn^++, soluble starch) was 146.6%, the “% Relative Activity” value ([4]; 10 mM Mn^++, raw corn starch) was 160.6% and the “% Relative Activity” value ([4]; 10 mM Mn^++, soluble starch) was 176.3%. For the same molecule, the “effect on hydrolysis of starch (in words)” value ([4]; raw corn starch and soluble starch) was “enhances the hydrolysis of both raw corn starch and soluble starch”, the “Relative Activity” value ([5]; 0.01 mM Mn^++, cooked dent corn starch 0.5%) was 113.3% and the “Relative Activity” value ([5]; 0.01 mM Mn^++, cooked high-amylose V corn starch 0.5%) was 119.2%. For the same molecule, the “Relative Activity” value ([5]; 0.01 mM Mn^++, cooked soluble corn starch 0.5%) was 119.1%, the “Relative Activity” value ([5]; 0.01 mM Mn^++, cooked waxy corn starch 0.5%) was 113.0% and the “Relative Activity” value ([5]; 0.1 mM Mn^++, cooked dent corn starch 0.5%) was 126.1%. For the same molecule, the “Relative Activity” value ([5]; 0.1 mM Mn^++, cooked high-amylose V corn starch 0.5%) was 130.9%, the “Relative Activity” value ([5]; 0.1 mM Mn^++, cooked soluble corn starch 0.5%) was 129.1% and the “Relative Activity” value ([5]; 0.1 mM Mn^++, cooked waxy corn starch 0.5%) was 130.1%. For the same molecule, the “Relative Activity” value ([5]; 1 mM Mn^++, cooked dent corn starch 0.5%) was 148.4%, the “Relative Activity” value ([5]; 1 mM Mn^++, cooked high-amylose V corn starch 0.5%) was 141.3% and the “Relative Activity” value ([5]; 1 mM Mn^++, cooked soluble corn starch 0.5%) was 144.8%. The “Relative Activity” value ([5]; 1 mM Mn^++, cooked waxy corn starch 0.5%) was 147.2%, the “Relative Activity” value ([5]; 10 mM Mn^++, cooked dent corn starch 0.5%) was 186.9% and the “Relative Activity” value ([5]; 10 mM Mn^++, cooked high-amylose V corn starch 0.5%) was 193.1%. The “Relative Activity” value ([5]; 10 mM Mn^++, cooked soluble corn starch 0.5%) was 178.3%, the “Relative Activity” value ([5]; 10 mM Mn^++, cooked waxy corn starch 0.5%) was 200.3% and the “Relative Activity” value ([6]; 0.01 mM Mn^++) was 112.0%. For the same molecule, the “Relative Activity” value ([6]; 0.1 mM Mn^++) was 123.8%, the “Relative Activity” value ([6]; 1 mM Mn^++) was 145.1% and the “Relative Activity” value ([6]; 10 mM Mn^++) was 223.5%.
